Data on 11 compounds can be found in patent publication EP4603105A1, “PHARMACEUTICAL COMPOSITION CONTAINING CYCLIC COMPOUND HAVING SELECTIVE KRAS INHIBITORY EFFECT AGAINST HRAS AND NRAS” (CHUGAI SEIYAKU KABUSHIKI KAISHA, priority 2022, dated 2024).

One experiment deals with HRAS wild-type protein (Homo sapiens, UniProt P01112). Put plainly: Binding to HRAS by surface plasmon resonance (SPR), KD and KD ratio to KRAS. Put shortly: (§1)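 Measured at 30°C: SPR with GDP-loaded, E. coli-expressed biotin-Avi RAS captured (~100–300 RU), ascending 75 s compound injections, HBS pH 7.4 with GDP, MgCl2, 4% DMSO. KD from 1:1 fit.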
Chain of HRAS wild-type protein (P01112 whole entry): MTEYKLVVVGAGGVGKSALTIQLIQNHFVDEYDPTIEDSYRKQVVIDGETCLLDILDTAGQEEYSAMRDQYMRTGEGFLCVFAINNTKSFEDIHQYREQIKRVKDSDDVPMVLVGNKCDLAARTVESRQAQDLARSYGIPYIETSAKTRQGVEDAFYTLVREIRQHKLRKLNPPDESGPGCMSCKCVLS
On the technique in general: Surface plasmon resonance follows binding to a sensor surface in real time, without labels.

Experiment [1] has as its target GDP-bound NRAS wild-type protein (Homo sapiens, UniProt P01111). Put plainly: Binding to NRAS by surface plasmon resonance (SPR), KD and KD ratio to KRAS. The method in brief: as §1
In experiment [2] the test system is human lung cancer strain NCI-H441. Put plainly: NCI-H441 cell proliferation inhibitory activity (CellTiter-Glo, 4 days). In kind it is cell-based. The following applies: read-out: NCl-H441 IC50. The method in brief:
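Signal came from […] measured per well once the reagent was added. Beforehand, cells were cultured at 37°C and 5% carbon dioxide on a compound series serially diluted in dimethyl sulfoxide.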

The target in experiment [3] is GDP-bound KRAS wild-type protein (Homo sapiens, UniProt P01116). Put plainly: Binding to KRAS by surface plasmon resonance (SPR), dissociation constant KD. Put shortly: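 Each cycle, GDP-bound biotin-Avi RAS was captured (~100–300 RU), compound concentrations were injected low to high for 75 s each at 100 µL/min, then the chip was regenerated. Buffer: HBS pH 7.4, 10 mM MgCl2, 10 µM GDP, 1 mM DTT, 4% DMSO; 30°C. KD from a 1:1 binding model.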
Chain of GDP-bound KRAS wild-type protein (P01116 1-188 isoform P01116-2): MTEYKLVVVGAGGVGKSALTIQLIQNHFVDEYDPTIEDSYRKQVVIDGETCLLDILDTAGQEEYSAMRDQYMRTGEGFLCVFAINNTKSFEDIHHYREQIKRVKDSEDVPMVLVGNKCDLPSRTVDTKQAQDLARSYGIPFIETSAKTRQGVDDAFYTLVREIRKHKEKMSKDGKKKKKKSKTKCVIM

[4] abbreviates: ratio of KD with respect to HRAS wild-type protein to KD with respect to KRAS.
Setting [5] is: ratio of KD with respect to GDP-bound NRAS wild-type protein to KD with respect to KRAS.
[6] abbreviates: 50% proliferation inhibitory concentration, four days.
Setting [7] is: Single Cycle Kinetics, 1:1 binding model.
The mark [8] stands for this setting: ratio of KD for HRAS wild-type protein to KD for KRAS.
Where [9] appears, read: ratio of KD for GDP-bound NRAS wild-type protein to KD for KRAS.

Each structure is given as a SMILES string. Where two headings read alike, the source gives them in different places.

Chain of GDP-bound NRAS wild-type protein (P01111 whole entry): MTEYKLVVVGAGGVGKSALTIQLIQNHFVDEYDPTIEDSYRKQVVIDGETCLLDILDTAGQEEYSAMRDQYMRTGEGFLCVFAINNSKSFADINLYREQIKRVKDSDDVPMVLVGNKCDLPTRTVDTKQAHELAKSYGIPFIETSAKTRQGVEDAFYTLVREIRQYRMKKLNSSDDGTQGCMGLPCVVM

Turning to `CC[C@H](C)[C@@H]1NC(=O)[C@H](CC(C)C)N(C)C(=O)C[C@@H](C(=O)N2CCOCC2)N(C)C(=O)[C@H](C2CCCC2)N(C)C(=O)C2(CCC2)NC(=O)[C@@H]2CCCN2C(=O)[C@H](CCc2cc(F)c(C(F)(F)F)c(F)c2)NC(=O)CN(C)C(=O)[C@H](Cc2ccc(C(F)(F)F)cc2)N2C[C@H](C)[C@H](C)C[C@@H](C2=O)N(C)C(=O)[C@@H]2CCN2C1=O` [PP1367], the “HRAS /KRAS” value on HRAS wild-type protein (setting [4]) is “B (a compound having 3 or more and less than 10 is denoted as B)”. In addition, in experiment [1] (setting [5]), the “NRAS /KRAS” value is “A (a compound having 10 or more and less than 20 is denoted as A)”. Moreover, the IC50 (commonly the concentration at which inhibition is half-maximal) in experiment [2] (setting [6]) came out at 29.3 nM. Besides, the Kd (in general, the constant that tells how readily two partners part at equilibrium) in experiment [3] (setting [7]) was 0.34 nM.

`CC[C@H](C)[C@@H]1NC(=O)[C@H](CC)N(C)C(=O)C[C@@H](C(=O)N(C)C)N(C)C(=O)[C@H](C2CCCC2)N(C)C(=O)C2(CCC2)NC(=O)[C@H](C)N(C)C(=O)[C@H](CCc2cc(F)c(C(F)(F)F)c(F)c2)NC(=O)CN(C)C(=O)[C@H](Cc2ccc(C(F)(F)F)cc2)N2CC/C=C\C[C@@H](C2=O)N(C)C(=O)CN(C)C1=O` [PP1146]: the “HRAS /KRAS” value at HRAS wild-type protein (setting [4]) is “B (a compound having 3 or more and less than 10 is denoted as B)”. Also, the “NRAS /KRAS” value in experiment [1] (setting [5]) was “A (a compound having 10 or more and less than 20 is denoted as A)”. In addition, the IC50 in experiment [2] (setting [6]) was determined as 202 nM. The compound also had a Kd in experiment [3] (setting [7]) of 0.32 nM.

As to `C#CC[C@H]1C(=O)N[C@@H]([C@@H](C)CC)C(=O)N2CCC[C@H]2C(=O)N(C)[C@H]2C/C=C\CCN(C2=O)[C@@H](Cc2ccc(C)cc2)C(=O)N(C)CC(=O)N[C@@H](CCc2cc(F)c(C(F)(F)F)c(F)c2)C(=O)N2C[C@H](OCC)C[C@H]2C(=O)N(C)C2(CCC2)C(=O)N(C)[C@@H](C2CCCC2)C(=O)N(C)[C@H](C(=O)N(C)C)CC(=O)N1C` [PP3256], at HRAS wild-type protein (setting [8]), the “HRAS /KRAS” value is “A (a compound having 10 or more and less than 20 is denoted as A)”. Further, in experiment [1] (setting [9]), the “NRAS /KRAS” value is “A (a compound having 10 or more and less than 20 is denoted as A)”. Also, the IC50 in experiment [2] (NCI-H441 cells, 4 days) was determined as 4.2 nM. The Kd in experiment [3] (Single Cycle Kinetics) turned out to be 0.078 nM.

For the compound `CCO[C@@H]1C[C@H]2C(=O)NC3(CCC3)C(=O)N(C)[C@@H](C(CC)CC)C(=O)N(C)[C@H](C(=O)N(C)C)CC(=O)N(C)[C@@H](CC(C)C)C(=O)N[C@@H]([C@@H](C)CC)C(=O)N(C)CC(=O)N(C)[C@H]3C/C=C\CCN(C3=O)[C@@H](Cc3ccc(C(F)(F)F)cc3)C(=O)N(C)CC(=O)N[C@@H](CCc3cc(F)c(C(F)(F)F)c(F)c3)C(=O)N2C1` [PP1201], at HRAS wild-type protein (setting [4]), the “HRAS /KRAS” value was “A (a compound having 10 or more and less than 20 is denoted as A)”. Further, the “NRAS /KRAS” value in experiment [1] (setting [5]) is “AA (a compound having 20 or more is denoted as AA)”. Besides, the IC50 in experiment [2] (setting [6]) worked out at 9.7 nM. In addition, the Kd in experiment [3] (setting [7]) came out at 0.17 nM.

Consider `CCCOC[C@H]1C(=O)N[C@@H]([C@@H](C)CC)C(=O)N(C)CC(=O)N(C)[C@H]2C/C=C\CCN(C2=O)[C@@H](Cc2ccc(C)cc2)C(=O)N(C)CC(=O)N[C@@H](CCc2ccc(C(F)(F)F)c(Cl)c2)C(=O)N2C[C@H](OCC)C[C@H]2C(=O)NC2(CC(C)(C)C2)C(=O)N(C)[C@@H](C2CCCC2)C(=O)N(C)[C@H](C(=O)N(C)C)CC(=O)N1C` [PP2402], for which the “HRAS /KRAS” value on HRAS wild-type protein (setting [8]) is “A (a compound having 10 or more and less than 20 is denoted as A)”. Moreover, the “NRAS /KRAS” value in experiment [1] (setting [9]) was “A (a compound having 10 or more and less than 20 is denoted as A)”. For the same compound, the IC50 in experiment [2] (NCI-H441 cells, 4 days) was 10.6 nM. In experiment [3] (1:1 binding model), this compound showed a Kd of 0.092 nM.

Turning to `CCO[C@@H]1C[C@H]2C(=O)NC3(CCC3)C(=O)N(C)[C@@H](C(CC)CC)C(=O)N(C)[C@H](C(=O)N(C)C)CC(=O)N(C)[C@@H](C)C(=O)N[C@@H]([C@@H](C)CC)C(=O)N(C)CC(=O)N(C)[C@H]3C/C=C\CCN(C3=O)[C@@H](Cc3ccc(C(F)(F)F)cc3)C(=O)N(C)CC(=O)N[C@@H](CCc3ccc(Cl)c(Cl)c3)C(=O)N2C1` [PP1214], the “HRAS /KRAS” value at HRAS wild-type protein (setting [4]) was “A (a compound having 10 or more and less than 20 is denoted as A)”. Further, in experiment [1] (setting [5]), the “NRAS /KRAS” value was “AA (a compound having 20 or more is denoted as AA)”. In experiment [2] (setting [6]), the IC50 was 93.4 nM. This compound yielded a Kd in experiment [3] (setting [7]) of 0.34 nM.

For `CC[C@H](C)[C@@H]1NC(=O)[C@H](COC)N(C)C(=O)C[C@@H](C(=O)N(C)C)N(C)C(=O)[C@H](C2CCCC2)N(C)C(=O)C2(CC(C)(C)C2)NC(=O)[C@@H]2C[C@@H](OC3CCC3)CN2C(=O)[C@H](CCc2cc(F)c(C(F)(F)F)c(F)c2)NC(=O)CN(C)C(=O)[C@H](CC2CCCCC2)N2CC/C=C\C[C@@H](C2=O)N(C)C(=O)CN(C2CC2)C1=O` [PP2618], at HRAS wild-type protein (setting [8]), the “HRAS /KRAS” value is “A (a compound having 10 or more and less than 20 is denoted as A)”. In addition, the “NRAS /KRAS” value in experiment [1] (setting [9]) is “A (a compound having 10 or more and less than 20 is denoted as A)”. For the same compound, the half-maximal inhibitory concentration (IC50) in experiment [2] (NCI-H441 cells, 4 days) was 69.5 nM. In addition, binding in experiment [3] (1:1 binding model) was characterised by a dissociation constant (Kd) of 1.4 nM.

Turning to `CCO[C@@H]1C[C@H]2C(=O)NC3(CCC3)C(=O)N(C)[C@@H](C3CCCC3)C(=O)N(C)[C@H](C(=O)N3CCOCC3)CC(=O)N(C)[C@@H](CC)C(=O)N[C@@H]([C@@H](C)CC)C(=O)N(C)CC(=O)N(C)[C@H]3CC[C@@H](C)CN(C3=O)[C@@H](Cc3ccc(C(F)(F)F)cc3)C(=O)N(C)CC(=O)N[C@@H](CCc3ccc(C(F)(F)F)c(Cl)c3)C(=O)N2C1` [PP1378], at HRAS wild-type protein (setting [4]), the “HRAS /KRAS” value was “C (A compound having a KD ratio of 0.1 or more and less than 3 is denoted as C)”. Besides, in experiment [1] (setting [5]), the “NRAS /KRAS” value was “B (a compound having 3 or more and less than 10 is denoted as B)”. Besides, in experiment [2] (setting [6]), the IC50 stood at 6.6 nM. For the same compound, in experiment [3] (setting [7]), binding was put at a Kd of 0.081 nM.

For the compound `CCC[C@H]1C(=O)N[C@@H]([C@@H](C)CC)C(=O)N2CCC[C@H]2C(=O)N(C)[C@H]2C/C=C\CCN(C2=O)[C@@H](Cc2ccc(C(F)F)cc2)C(=O)N(C)CC(=O)N[C@@H](CCc2ccc(Cl)c(Cl)c2)C(=O)N2C[C@H](OC3CCC3)C[C@H]2C(=O)NC2(CC(C)(C)C2)C(=O)N(C)[C@@H](C(CC)CC)C(=O)N(C)[C@H](C(=O)N(C)C)CC(=O)N1C` [PP2646], the “HRAS /KRAS” value on HRAS wild-type protein (setting [8]) was “A (a compound having 10 or more and less than 20 is denoted as A)”. In experiment [1] (setting [9]), the “NRAS /KRAS” value is “AA (a compound having 20 or more is denoted as AA)”. For the same compound, in experiment [2] (NCI-H441 cells, 4 days), the IC50 was 92.6 nM. Also, the dissociation constant (Kd) in experiment [3] (1:1 binding model) came to 1.6 nM.

Consider `CCO[C@@H]1C[C@H]2C(=O)NC3(CCC3)C(=O)N(C)[C@@H](C3CCCC3)C(=O)N(C)[C@H](C(=O)N(C)C)CC(=O)N(C)[C@@H](Cc3ccc(Cl)c(Cl)c3)C(=O)N[C@@H]([C@@H](C)CC)C(=O)N(C)CC(=O)N(C)[C@H]3CCCCCN(C3=O)[C@@H](Cc3ccc(C(F)(F)F)cc3)C(=O)N(C)CC(=O)N[C@@H](CCc3cc(F)c(C(F)(F)F)c(F)c3)C(=O)N2C1` [PP1174], for which, at HRAS wild-type protein (setting [4]), the “HRAS /KRAS” value was “B (a compound having 3 or more and less than 10 is denoted as B)”. In experiment [1] (setting [5]), the “NRAS /KRAS” value is “B (a compound having 3 or more and less than 10 is denoted as B)”. Besides, the IC50 in experiment [2] (setting [6]) was 85.2 nM. The compound further had a Kd in experiment [3] (setting [7]) of 1 nM.

On to `CC[C@H](C)[C@@H]1NC(=O)[C@H](COC)N(C)C(=O)C[C@@H](C(=O)N(C)C)N(C)C(=O)[C@H](C2CCCC2)N(C)C(=O)C2(CC(C)(C)C2)NC(=O)[C@@H]2C[C@H](C)CN2C(=O)[C@H](CCc2ccc(C(F)(F)F)c(Cl)c2)NC(=O)CN(C)C(=O)[C@H](Cc2ccc(C)cc2)N2CC/C=C\C[C@@H](C2=O)N(C)C(=O)CN(C)C1=O` [PP2502], for which the “HRAS /KRAS” value at HRAS wild-type protein (setting [8]) is “A (a compound having 10 or more and less than 20 is denoted as A)”. Further, in experiment [1] (setting [9]), the “NRAS /KRAS” value is “A (a compound having 10 or more and less than 20 is denoted as A)”. Further, the IC50 in experiment [2] (NCI-H441 cells, 4 days) came to 7.9 nM. Moreover, the Kd in experiment [3] (1:1 binding model) came to 0.065 nM.
